Measured values as given in US10221163B2 (priority 2015, dated 2019).
Like-named read-outs stand apart in the source and are kept apart here.

Columns and labels:
[1] = tested on: Pseudomonas aeruginosa efflux+ (MB9798), IMP-1; assay type: cell-based; conditions: concentration restoring susceptibility to imipenem at 2 μg/mL in the presence of a class A, C, D serine β-lactamase inhibitor closely related to relebactam
Method in brief: (§1)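 P. aeruginosa PAO1-derived IMP-1 strains, efflux+ MB9798 and efflux− MB9799, tested by standard microbroth MIC with imipenem and/or ceftazidime fixed, usually at CLSI breakpoint, plus fixed class A/C β-lactamase inhibitor against AmpC. Inhibitor titrated; concentration restoring susceptibility recorded; MB9798/MB9799 fold difference indicates efflux.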

[2] = tested on: Pseudomonas aeruginosa MB9798 vs MB9799; conditions: ratio MITC95 PA_9798/MITC95 PA_9799
Method in brief: as §1

VIM-1 = VIM-1 (Pseudomonas aeruginosa (strain ATCC 15692 / DSM 22644 / CIP 104116 / JCM 14847 / LMG 12228 / 1C / PRS 101 / PAO1), UniProt A0A0F7KYQ8); test: biochemical; conditions: CCF2-FA substrate, 30 pM enzyme, 2 hours at 25° C.
Method in brief: (§2)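 Fluorescence assay of metallo-β-lactamase activity using CCF2-FA, a cephalosporin-linked 7-hydroxycoumarin–fluorescein substrate. Inhibitor, enzyme and substrate were incubated together for 2 hours at 25° C. IC50 came from a 4-parameter fit of inhibition versus inhibitor concentration.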

[3] = tested on: Escherichia coli expressing NDM-1 (CLB30005, CLB30016); assay type: cell-based; conditions: with imipenem 1 μg/ml; 95% inhibition of bacterial growth
Method in brief: (§3)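 Clinical isolates (E. coli NDM-1, S. marcescens IMP-1, K. pneumoniae VIM-1) were diluted 1:100 from saline suspension into 1.1×CAMHB and exposed to test compound with imipenem at 1 μg/ml. Plates were incubated at 35° C for 22 hours to 24 hours, and growth was read by absorbance.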

[4] = tested on: Serratia marcescens expressing IMP-1 (CL5741); assay type: cell-based; conditions: with imipenem 1 μg/ml; 95% inhibition of bacterial growth
Method in brief: as §3

[5] = tested on: Klebsiella pneumoniae expressing VIM-1 (IHMA599644); assay type: cell-based; conditions: with imipenem 1 μg/ml; 95% inhibition of bacterial growth
Method in brief: as §3

[6] = tested on: Pseudomonas aeruginosa efflux− (MB9799), IMP-1; assay type: cell-based; conditions: concentration restoring susceptibility to imipenem at 2 μg/mL in the presence of a class A, C, D serine β-lactamase inhibitor closely related to relebactam
Method in brief: as §1

NDM-1 = NDM-1 (Klebsiella pneumoniae, UniProt C7C422); test: biochemical; assay type: biochemical; conditions: fluorescence assay, CCF2-FA substrate, 1 pM enzyme, 2 hours at 25° C.; read-out: NDM-1 IC50
Method in brief: as §2

IMP-1 = IMP-1 (Serratia marcescens, UniProt P52699); test: biochemical; assay type: biochemical; conditions: fluorescence assay, CCF2-FA substrate, 2 pM enzyme, 2 hours at 25° C.; read-out: IMP-1 IC50
Method in brief: as §2

[7] = fluorescence assay, read-out: VIM-1 IC50

IMP-1, sequence (P52699 whole entry, looked up, species assumed): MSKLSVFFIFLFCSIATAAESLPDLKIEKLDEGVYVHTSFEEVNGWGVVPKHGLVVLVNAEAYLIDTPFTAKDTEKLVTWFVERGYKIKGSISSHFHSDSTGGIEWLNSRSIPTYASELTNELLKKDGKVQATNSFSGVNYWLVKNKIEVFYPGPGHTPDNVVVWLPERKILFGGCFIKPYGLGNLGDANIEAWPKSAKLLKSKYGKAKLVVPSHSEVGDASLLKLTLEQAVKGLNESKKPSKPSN
NDM-1, sequence (C7C422 whole entry, looked up, species assumed): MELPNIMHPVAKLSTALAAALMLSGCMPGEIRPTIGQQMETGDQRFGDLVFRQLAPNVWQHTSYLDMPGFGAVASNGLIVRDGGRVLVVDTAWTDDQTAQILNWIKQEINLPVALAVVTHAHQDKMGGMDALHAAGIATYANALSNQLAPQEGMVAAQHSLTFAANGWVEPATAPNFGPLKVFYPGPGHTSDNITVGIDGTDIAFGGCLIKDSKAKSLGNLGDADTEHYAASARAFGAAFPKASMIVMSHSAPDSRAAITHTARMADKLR

Compound	P. aeruginosa expressing IMP-1, efflux + (MB9798) MITC95 [1] [µM]	Efflux ratio [2]	IC50 (VIM-1; [7]) [nM]	Escherichia coli expressing NDM-1 (CLB30016) MITC95 [3] [µM]	Serratia marcescens expressing IMP-1 (CL5741) MITC95 [4] [µM]	Klebsiella pneumoniae expressing VIM-1 (IHMA599644) MITC95 [5] [µM]	P. aeruginosa expressing IMP-1, efflux − (MB9799) MITC95 [6] [µM]	IC50 (NDM-1) [nM]	IC50 (IMP-1) [nM]	IC50 (VIM-1; VIM-1 IC50, fluorescence assay) [nM]
NS(=O)(=O)c1c(S(=O)(=O)N2CCNCC2)ccc(-c2cccc3cn[nH]c23)c1-c1nnn[nH]1 [Example 160, 3-(1H-indazol-7-yl)-6-(piperazin-1-ylsulfonyl)-2-(1H-tetrazol-5-yl)benzenesulfonamide]	6.25	4.00	1.07	3.125	1.563	3.125	1.563	0.599	1.39	
Nc1nc2c(-c3ccc(S(=O)(=O)N[C@@H]4CCNC4)c(S(N)(=O)=O)c3-c3nn[nH]n3)cccc2[nH]1 [Example 161, 4-(2-amino-1H-benzo[d]imidazol-4-yl)-N^1—((R)-pyrrolidin-3-yl)-3-(2H-tetrazol-5-yl)benzene-1,2-disulfonamide]	0.3993	0.78	0.106	0.2995	0.5295	0.8542	0.5139	0.0314	0.401	
Nc1nc2c(-c3ccc(S(=O)(=O)N[C@H]4CCNC4)c(S(N)(=O)=O)c3-c3nn[nH]n3)cccc2[nH]1 [Example 162, 4-(2-amino-1H-benzo[d]imidazol-4-yl)-N^1-((S)-pyrrolidin-3-yl)-3-(2H-tetrazol-5-yl)benzene-1,2-disulfonamide]	0.4271	0.87	0.154	0.3203	0.5573	0.9844	0.4922	0.0607	0.733	
Cn1c(N)nc2c(-c3ccc(S(=O)(=O)N[C@H]4CCNC4)c(S(N)(=O)=O)c3-c3nn[nH]n3)cccc21 [Example 163, 4-(2-amino-1-methyl-1H-benzo[d]imidazol-4-yl)-N^1-((S)-pyrrolidin-3-yl)-3-(2H-tetrazol-5-yl)benzene-1,2-disulfonamide]	0.7813	1.00	0.118	0.3906	0.7813	0.7813	0.7813	0.0605	0.45	
Cn1c(N)nc2c(-c3ccc(S(=O)(=O)N[C@@H]4CCNC4)c(S(N)(=O)=O)c3-c3nn[nH]n3)cccc21 [Example 164, 4-(2-amino-1-methyl-1H-benzo[d]imidazol-4-yl)-N^1-((R)-pyrrolidin-3-yl)-3-(2H-tetrazol-5-yl)benzene-1,2-disulfonamide]	0.7813	1.00	0.105	0.3906	0.7813	0.7813	0.7813	0.0378	0.272	
NC1CCC(c2ccc(S(N)(=O)=O)c(S(N)(=O)=O)c2-c2nnn[nH]2)CC1 (stereo not drawn) [Example 165, 4-(4-aminocyclohexyl)-3-(1H-tetrazol-5-yl)benzene-1,2-disulfonamide]	6.25	4.00		0.3906	1.563	3.125	1.563	17.7	24.4	1.17
C[N+]1(C)CC[C@H](NS(=O)(=O)c2ccc(-c3cccc4[nH]c(N)nc34)c(-c3nn[n-]n3)c2S(N)(=O)=O)C1 [Example 166, (S)-5-(6-(2-amino-1H-benzo[d]imidazol-4-yl)-3-(N-(1,1-dimethylpyrrolidin-1-ium-3-yl)sulfamoyl)-2-sulfamoylphenyl)tetrazol-2-ide]	1.563	[…]		0.7813	1.563	3.125	1.563	0.0581	0.82	[…]
Cn1c(N)nc2c(-c3ccc(S(=O)(=O)N[C@H]4CC[N+](C)(C)C4)c(S(N)(=O)=O)c3-c3nn[n-]n3)cccc21 [Example 167, (S)-5-(6-(2-amino-1-methyl-1H-benzo[d]imidazol-4-yl)-3-(N-(1,1-dimethylpyrrolidin-1-ium-3-yl)sulfamoyl)-2-sulfamoylphenyl)tetrazol-2-ide]	3.125	2.00		1.563	1.563	3.125	1.563	0.0591	0.346	0.169
Nc1nc2c(-c3ccc(S(=O)(=O)N[C@H]4CNC[C@H]4O)c(S(N)(=O)=O)c3-c3nnn[nH]3)cccc2[nH]1 [Example 168, 4-(2-amino-1H-benzo[d]imidazol-4-yl)-N^1-((3S,4R)-4-hydroxypyrrolidin-3-yl)-3-(1H-tetrazol-5-yl)benzene-1,2-disulfonamide]	0.3828	0.70		0.375	0.668	0.8906	0.543	0.0515	0.544	0.16
Nc1nc2c(-c3ccc(S(=O)(=O)N[C@H]4CNC[C@@H]4O)c(S(N)(=O)=O)c3-c3nnn[nH]3)cccc2[nH]1 [Example 169, 4-(2-amino-1H-benzo[d]imidazol-4-yl)-N^1-((3S,4S)-4-hydroxypyrrolidin-3-yl)-3-(1H-tetrazol-5-yl)benzene-1,2-disulfonamide]	1.563	1.00		0.7813	1.563	3.125	1.563	0.137	2.08	0.581
Nc1nc2c(-c3ccc(S(=O)(=O)N[C@@H]4CNC[C@@H]4O)c(S(N)(=O)=O)c3-c3nnn[nH]3)cccc2[nH]1 [Example 170, 4-(2-amino-1H-benzo[d]imidazol-4-yl)-N^1-((3R,4S)-4-hydroxypyrrolidin-3-yl)-3-(1H-tetrazol-5-yl)benzene-1,2-disulfonamide]	0.7813	1.00		0.7813	0.7813	1.563	0.7813	0.0803	1.12	0.257
Nc1nc2c(-c3ccc(S(=O)(=O)N[C@@H]4CNC[C@H]4O)c(S(N)(=O)=O)c3-c3nnn[nH]3)cccc2[nH]1 [Example 171, 4-(2-amino-1H-benzo[d]imidazol-4-yl)-N^1-((3R,4R)-4-hydroxypyrrolidin-3-yl)-3-(1H-tetrazol-5-yl)benzene-1,2-disulfonamide]	0.7813	0.50		0.7813	1.563	3.125	1.563	0.125	1.39	0.506
